Test results reported in ChEMBL document CHEMBL1149937, “A new class of dinucleotide analogues. The synthesis of 3-O-thymidylyl(5-deoxy-5-selene-thymidylyl)-Se-phosphoroselenolate, its O-methyl ester and methanephosphonate derivatives” (Bioorg Med Chem Lett, 1994).

Tests used:
Assay type in all cases: functional, cell-based
Conditions in all cases: Homo sapiens
ATH-8 cell line [1] = test: Antiviral activity against HIV-1 using CD4+ ATH8 cells at a concentration of 25 uM; moderately toxic
ATH-8 cell line [2] = test: Antiviral activity against HIV-1 using CD4+ ATH8 cells at a concentration of 5 uM; No detectable activity
ATH-8 cell line [3] = test: Antiviral activity against HIV-1 using CD4+ ATH8 cells at a concentration of 25 uM; No detectable activity

SMILES | Activity (ATH-8 cell line [1]) | Activity (ATH-8 cell line [2]) | Activity (ATH-8 cell line [3])
Cc1cn([C@H]2C[C@H](OP(=O)(O)[Se]C[C@H]3O[C@@H](n4cc(C)c(=O)[nH]c4=O)C[C@@H]3O)[C@@H](CO)O2)c(=O)[nH]c1=O | Toxic | No activity | 
COP(=O)(O[C@H]1C[C@H](n2cc(C)c(=O)[nH]c2=O)O[C@@H]1CO)[Se]C[C@H]1O[C@@H](n2cc(C)c(=O)[nH]c2=O)C[C@@H]1O (some centres undefined) |  | No activity | No activity
